Columns and labels:
[1] = Liver microsomal stability, rat; conditions: for Rem @ RLM × 30 min: rat liver microsomes, 1 μM compound, 0.5 mg/ml protein; for half-life at 1 μM / microsomal CLint at 1 μM: rat, liver microsomes, pH 7.4
[2] = target: aryl hydrocarbon receptor (AhR) (Mus musculus (Mouse), UniProt P30561); assay: AhR ligand screening: AhRE-luciferase reporter in transfected Hepa1 cells; format: cell-based; conditions: for Fold @ 1 nM: fold change of luciferase expression at 1 nM test compound relative to vehicle (0.1% DMSO); for Fold @ 100 nM: fold change of luciferase expression at 100 nM test compound relative to vehicle (0.1% DMSO); for Fold @ 10 uM: fold change of luciferase expression at 10 uM test compound relative to vehicle (0.1% DMSO); for Fold relative to benchmark @ 100 nM: luciferase expression at 100 nM test compound relative to 100 nM benchmark compound 11-cl-BBQ
aryl hydrocarbon receptor (AhR), sequence (P30561 10-805): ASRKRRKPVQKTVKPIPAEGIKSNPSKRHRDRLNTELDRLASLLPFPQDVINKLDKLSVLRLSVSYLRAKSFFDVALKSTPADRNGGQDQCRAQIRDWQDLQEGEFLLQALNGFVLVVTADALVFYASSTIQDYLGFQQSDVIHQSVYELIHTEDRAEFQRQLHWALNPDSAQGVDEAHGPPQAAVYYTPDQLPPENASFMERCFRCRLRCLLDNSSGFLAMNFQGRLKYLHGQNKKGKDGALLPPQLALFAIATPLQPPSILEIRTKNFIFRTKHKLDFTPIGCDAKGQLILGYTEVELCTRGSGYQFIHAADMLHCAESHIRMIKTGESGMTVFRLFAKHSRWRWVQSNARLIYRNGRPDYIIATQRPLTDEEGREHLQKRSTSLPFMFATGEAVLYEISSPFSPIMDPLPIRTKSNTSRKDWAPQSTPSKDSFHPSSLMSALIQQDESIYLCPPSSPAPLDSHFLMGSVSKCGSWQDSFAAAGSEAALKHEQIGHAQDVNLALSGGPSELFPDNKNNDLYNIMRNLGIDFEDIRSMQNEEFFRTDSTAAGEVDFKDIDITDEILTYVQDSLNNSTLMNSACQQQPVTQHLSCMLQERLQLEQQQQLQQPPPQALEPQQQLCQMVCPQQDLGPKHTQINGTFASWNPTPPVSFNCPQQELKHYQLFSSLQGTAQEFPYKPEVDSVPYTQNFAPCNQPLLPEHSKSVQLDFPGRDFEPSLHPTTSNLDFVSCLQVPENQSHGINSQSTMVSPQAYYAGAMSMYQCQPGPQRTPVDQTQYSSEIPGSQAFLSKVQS
aryl hydrocarbon receptor (AhR), sequence (P53762 whole entry partner): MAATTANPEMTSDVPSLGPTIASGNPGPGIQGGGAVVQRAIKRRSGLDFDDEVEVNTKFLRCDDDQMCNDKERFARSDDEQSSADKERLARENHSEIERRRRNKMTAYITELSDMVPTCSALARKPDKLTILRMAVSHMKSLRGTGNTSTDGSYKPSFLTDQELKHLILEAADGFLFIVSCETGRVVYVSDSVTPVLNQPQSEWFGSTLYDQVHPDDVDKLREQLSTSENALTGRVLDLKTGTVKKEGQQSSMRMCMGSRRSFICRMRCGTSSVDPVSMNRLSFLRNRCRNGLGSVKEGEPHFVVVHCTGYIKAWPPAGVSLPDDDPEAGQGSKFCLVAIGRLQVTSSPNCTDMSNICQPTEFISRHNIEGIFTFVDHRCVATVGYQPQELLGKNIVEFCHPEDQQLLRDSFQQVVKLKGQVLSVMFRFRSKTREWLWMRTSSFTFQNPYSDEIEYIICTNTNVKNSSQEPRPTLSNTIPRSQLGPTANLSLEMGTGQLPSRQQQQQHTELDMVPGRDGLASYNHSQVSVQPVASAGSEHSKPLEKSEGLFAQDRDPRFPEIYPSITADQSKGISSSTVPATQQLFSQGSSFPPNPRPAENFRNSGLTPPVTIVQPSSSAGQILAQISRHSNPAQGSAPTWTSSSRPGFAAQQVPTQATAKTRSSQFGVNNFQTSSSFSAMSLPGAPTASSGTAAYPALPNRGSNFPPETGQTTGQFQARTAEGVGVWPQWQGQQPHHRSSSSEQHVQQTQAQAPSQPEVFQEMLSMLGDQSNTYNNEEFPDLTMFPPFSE
Method in brief: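 Mouse Hepa1 cells transfected with an AhRE-luciferase reporter were plated at 1×10^4 cells/well, grown overnight, then exposed to compounds. Cell lysates were assayed for luciferase by luminometry, with results given as fold induction over 0.1% DMSO vehicle.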

[3] = Liver microsomal stability, mouse; conditions: for Rem @ MLM × 30 min: mouse liver microsomes, 1 μM compound, 0.5 mg/ml protein; for half-life at 1 μM / microsomal CLint at 1 μM: mouse, liver microsomes, pH 7.4
Procedure: (§1) The assessment of metabolic stability of testing compounds was performed using human, mouse, rat, dog and monkey liver microsomes (20 mg protein/ml). Each reaction mixture contained 42.5 μL of 0.1 M potassium phosphate buffer pH 7.4, containing respective LM protein (final concentration 0.5 mg/ml). 2.5 μL of the compound stock solution was added in it (1 μM final concentration). The reaction was initiated by the addition of 5 μL NADPH solution (final Concentration 1 mM). At different time points (0, 5, 15, and 30 minutes), samples were quenched with 200 μL of cold acetonitrile containing ISTD Propranolol. Samples were centrifuged at 3500 rpm for 20 mM at 4° C. Supernatant was subjected to LC-MS/MS analysis for quantification. Verapamil was used as a positive control.

[4] = Liver microsomal stability, human; conditions: for Rem @ HLM × 30 min: human liver microsomes, 1 μM compound, 0.5 mg/ml protein; for half-life at 1 μM / microsomal CLint at 1 μM: human, liver microsomes, pH 7.4
Procedure: as §1

Rem @ RLM × 30 min [1] [%]	half-life at 1 μM [1] [min]	microsomal CLint at 1 μM [1] [µL/min/mg]	Fold @ 1 nM [2] [fold]	Fold @ 100 nM [2] [fold]	Fold @ 10 uM [2] [fold]	Fold relative to benchmark @ 100 nM [2] [fold]	Rem @ MLM × 30 min [3] [%]	half-life at 1 μM [3] [min]	microsomal CLint at 1 μM [3] [µL/min/mg]	Rem @ HLM × 30 min [4] [%]	half-life at 1 μM [4] [min]	microsomal CLint at 1 μM [4] [µL/min/mg]	SMILES
45.2	31	44.7	1	1	21	0.02	52.4	36.3	38.2	54.3	42.4	32.7	CN(C)c1ccc(C(=O)c2c[nH]c3ccc(Cl)cc23)cc1 [Compound 891]
23.1	14.3	96.7	1	2	16	0.04	22.2	13.9	100	81.2	98.8	14	O=C(c1ccc(SC(F)(F)F)cc1)c1c[nH]c2ccc(Cl)cc12 [Compound 884]
58.1	43	32.3	1	1	7	0.02	54.5	37.6	36.9	57.9	45.3	30.6	COc1ccc(C(=O)c2c[nH]c3ccc(Cl)cc23)cc1 [Compound 894]
33.5	25.6	54.2	1	1	5	0.02	43.5	33.9	40.9	30.2	22.6	61.2	O=C(c1cccc(Cl)c1Cl)c1c[nH]c2ccc(Cl)cc12 [Compound 889]
37.4	29	47.8	1	2	17	0.04	39.3	28.2	49.1	44.7	35.2	39.4	O=C(c1ccc(Cl)cc1Cl)c1c[nH]c2ccc(Cl)cc12 [Compound 890]
64.9	57	24.3	1	1	15	0.02	36.7	21	66.1	24.7	15.3	90.7	O=C(c1ccccc1)c1c[nH]c2ccc(Cl)cc12 [Compound 892]
			1	2	2	0.07							O=C(c1ccc2c(c1)nc(-c1cccc3ccccc13)n2S(=O)(=O)c1cccc(F)c1)N1CCCCC1 [Compound 1368]
			1	3	32	0.06							Clc1ccc2c(c1)nc(-c1cccc3ccccc13)n2Cc1ccncc1 [Compound 876]

Further lines, the molecule ahead of its results:

SMILES	Rem @ RLM × 30 min [1] [%]	half-life at 1 μM [1] [min]	microsomal CLint at 1 μM [1] [µL/min/mg]	Fold @ 1 nM [2] [fold]	Fold @ 100 nM [2] [fold]	Fold @ 10 uM [2] [fold]	Fold relative to benchmark @ 100 nM [2] [fold]	Rem @ MLM × 30 min [3] [%]	half-life at 1 μM [3] [min]	microsomal CLint at 1 μM [3] [µL/min/mg]	Rem @ HLM × 30 min [4] [%]	half-life at 1 μM [4] [min]	microsomal CLint at 1 μM [4] [µL/min/mg]
CCc1ccc(S(=O)(=O)n2c(-c3cccc4ccccc34)nc3ccc(Cl)cc32)cc1 [Compound 776]	27.5	16.3	84.9	1	15	20	0.6	23.9	14.6	94.7	28.3	16.4	84.6
O=S(=O)(c1ccc2ccccc2c1)n1c(-c2cccc3ccccc23)nc2cc(Cl)ccc21 [Compound 785]	57.1	36.5	37.9	1	16	44	0.55	49.3	29.4	47.2	54.2	33.9	40.9
O=C(C1CC1)n1c(-c2cccc3ccccc23)nc2ccc(Cl)cc21 [Compound 774]	45.5	31.9	43.5	1	21	28	0.84	28.2	19.3	71.9	52.7	36.3	38.2
O=S(=O)(c1ccc(C(F)(F)F)cc1)n1c(-c2cccc3ccccc23)nc2cc(Cl)ccc21 [Compound 781]	43.1	24.4	56.8	1	20	24	0.8	18.0	12.1	115	44.4	24.6	56.3
O=C(c1cccc2ccccc12)C1CN(C(=O)c2ccccc2)c2ccc(Cl)cc21 (stereo not shown) [Compound 521]	45.5	24.8	56	1	1	1	0.07	64.6	60.9	23	58.0	40.3	34
O=S(=O)(c1ccc2ccccc2c1)n1c(-c2cccc3ccccc23)nc2ccc(Cl)cc21 [Compound 786]	25.6	14.8	93.8	1	31	40	1.07	22.1	13.4	104	27.4	16.1	86.2
Cn1ncc2c(-c3nc4cc(Cl)ccc4n3C(=O)c3ccc(F)c(F)c3)cccc21 [Compound 860]				1	3	88	0.1						
O=C(c1ccc(SC(F)(F)F)cc1)n1c(-c2cccc3ccccc23)nc2ccc(Cl)cc21 [Compound 687]				1	28	32	1.08						
O=C(c1ccc(F)c(F)c1)n1c(-c2cccc3c2CCCC3)nc2ccc(Cl)cc21 [Compound 780]				1	1	7	0.04						
O=S(=O)(C1CC1)n1c(-c2cccc3ccccc23)nc2cc(Cl)ccc21 [Compound 783]				1	1	24	0.03						
Cc1ccc(S(=O)(=O)n2c(-c3cccc4ccccc34)nc3cc(F)ccc32)cc1 [Compound 631, 5-fluoro-2-(naphthalen-1-yl)-1-tosyl-1H-benzo[d]imidazole]				1	1	7	0.11						
O=C(c1ccccc1)n1c(-c2ccc(F)cc2)nc2cc(Cl)ccc21 [Compound 492]				1	1	14	0.03						
Clc1ccc2c(c1)nc1n2Cc2ccccc2-1 [Compound 522, 7-chloro-11H-benzo[4,5]imidazo[2,1-a]isoindole]				1	1	18	0.07						
N#Cc1ccc(C(=O)n2c(-c3cccc4ccccc34)nc3ccc(Cl)cc32)cc1 [Compound 689]				1	28	47	1.08						
